One experiment concerns the target T1, human vasopressin V2 receptor subtype (Homo sapiens, UniProt P30518).
T1 construct: host or cells: CHO cells, stably transfected (pZeoSV vector)
The experiment can be described thus: Vasopressin binding in CHO cell membranes expressing human vasopressin V2 subtype receptors ([3H]arginine vasopressin radioligand binding). Particulars: 100 nM. The method, boiled down: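 Membranes from CHO cells stably expressing human V2 receptor (25 to 50 μg protein/well) incubated 60 min at room temperature with [3H]arginine vasopressin in Tris-HCl pH 7.4 buffer with MgCl2, BSA and protease inhibitors. Filtration, scintillation counting; percent inhibition at one concentration or IC50 (nM).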
T1 sequence (P30518 whole entry): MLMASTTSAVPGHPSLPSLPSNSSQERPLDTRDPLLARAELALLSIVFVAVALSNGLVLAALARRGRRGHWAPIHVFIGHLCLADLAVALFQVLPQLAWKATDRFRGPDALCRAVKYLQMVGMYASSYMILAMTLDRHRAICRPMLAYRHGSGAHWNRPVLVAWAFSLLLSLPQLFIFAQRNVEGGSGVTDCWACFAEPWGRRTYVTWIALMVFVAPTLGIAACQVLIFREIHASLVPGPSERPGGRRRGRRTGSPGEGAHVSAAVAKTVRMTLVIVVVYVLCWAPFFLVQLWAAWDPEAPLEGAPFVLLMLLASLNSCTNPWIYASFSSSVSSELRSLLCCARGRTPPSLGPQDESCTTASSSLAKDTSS
Broadly, the inhibition is the drop in the measured response relative to a control, in per cent. For the compound `Cc1ccccc1-c1ccc(C(=O)N2Cc3ccc(C(=O)NCc4ccncc4)n3Cc3ccccc32)cc1` [Example 92, 10-[(2′-Methyl-[1,1′-biphenyl]-4-yl)carbonyl]-N-(4-pyridinylmethyl)-10,11-dihydro-5H-pyrrolo[2,1-c][1,4]benzodiazepine-3-carboxamide], the inhibition at 0.1 µM worked out at 0%.
Turning to `COc1cc(C(=O)N2Cc3ccc(C(=O)NCc4ccncc4)n3Cc3ccccc32)ccc1-c1ccccc1C` [Example 93, 10-[(2-Methoxy-2′-methyl-[1,1′-biphenyl]-4-yl)carbonyl]-N-(4-pyridinylmethyl)-10,11-dihydro-5H-pyrrolo[2,1-c][1,4]benzodiazepine-3-carboxamide], the inhibition at 0.1 µM worked out at 27%.
On the same count and under the same terms, the figure for `COc1cc(-c2ccccc2C)c(Cl)cc1C(=O)N1Cc2ccc(C(=O)NCc3ccncc3)n2Cc2ccccc21` [Example 94, 10-[(6-Chloro-3-methoxy-2′-methyl-[1,1′-biphenyl]-4-yl)carbonyl]-N-(4-pyridinylmethyl)-10,11-dihydro-5H-pyrrolo[2,1-c][1,4]benzodiazepine-3-carboxamide] is 5%.
On to `COc1cccc(-c2cc(OC)c(C(=O)N3Cc4ccc(C(=O)NCc5ccncc5)n4Cc4ccccc43)cc2Cl)c1` [Example 95, 10-[(6-Chloro-3,3′-dimethoxy-[1,1′-biphenyl]-4-yl)carbonyl]-N-(4-pyridinylmethyl)-10,11-dihydro-5H-pyrrolo[2,1-c][1,4]benzodiazepine-3-carboxamide], for which the inhibition at 0.1 µM is -1%.
Turning to `COc1cc(C(=O)N2Cc3ccc(C(=O)NCc4ccncc4)n3Cc3ccccc32)ccc1-c1cccc2ccccc12` [Example 96, 10-[3-Methoxy-4-(naphthalen-1-yl)benzoyl]-N-(4-pyridinylmethyl)-10,11-dihydro-5H-pyrrolo[2,1-c][1,4]benzodiazepine-3-carboxamide], the inhibition at 0.1 µM was found to be 22%.
`COc1ccccc1-c1ccc(C(=O)N2Cc3ccc(C(=O)NCc4ccncc4)n3Cc3ccccc32)cc1OC` [Example 97, 10-[(2,2′-Dimethoxy-[1,1′-biphenyl]-4-yl)carbonyl]-N-(4-pyridinylmethyl)-10,11-dihydro-5H-pyrrolo[2,1-c][1,4]benzodiazepine-3-carboxamide]: the inhibition at 0.1 µM came out at 16%.
As for `O=C(NCc1ccncc1)c1ccc2n1Cc1ccccc1N(C(=O)c1ccc(-c3cccc4ccccc34)cc1Cl)C2` [Example 99, 10-[2-Chloro-4-(naphthalen-1-yl)benzoyl]-N-(4-pyridinylmethyl)-10,11-dihydro-5H-pyrrolo[2,1-c][1,4]benzodiazepine-3-carboxamide], the inhibition at 0.1 µM was determined as 12%.
With `Cc1cc(C(=O)N2Cc3ccc(C(=O)NCc4ccncc4)n3Cc3ccccc32)ccc1-c1ccccc1C(F)(F)F` [Example 100, 10-{[2-Methyl-2′-trifluoromethyl-[1,1′-biphenyl]-4-yl]carbonyl}-N-(4-pyridinylmethyl)-10,11-dihydro-5H-pyrrolo[2,1-c][1,4]benzodiazepine-3-carboxamide], the inhibition at 0.1 µM was determined as 0%.

Staying with this experiment, now noted: value in parentheses.
Broadly, the IC50 is the concentration that inhibits the measured activity by half. On to `COc1ccccc1-c1ccc(C(=O)N2Cc3ccc(C(=O)N(C)Cc4cccnc4)n3Cc3ccccc32)cc1C` [Example 101, 10-[(2′-Methoxy-2-methyl-[1,1′-biphenyl]-4-yl)carbonyl]-N-methyl-N-(3-pyridinylmethyl)-10,11-dihydro-5H-pyrrolo[2,1-c][1,4]benzodiazepine-3-carboxamide], for which the IC50 came to 270 nM.
Still for that read-out and setting: the figure for `COc1cccc(-c2ccc(C(=O)N3Cc4ccc(C(=O)N(C)Cc5cccnc5)n4Cc4ccccc43)cc2C)c1` [Example 102, 10-[(3′-Methoxy-2-methyl-[1,1′-biphenyl]4-yl)carbonyl]-N-methyl-N-(3-pyridinyImethyl)-10,11-dihydro-5H-pyrrolo[2,1-c][1,4]benzodiazepine-3-carboxamide] is 534 nM.

These data come from patent publication US7064120B2, “Tricyclic pyridyl carboxamides and derivatives thereof tocolytic oxytocin receptor antagonists” (Wyeth, priority 2001, dated 2006).
